Drawing on ChEMBL document CHEMBL5696442, “Discovery of type II inhibitors of TGFβ-activated kinase 1 (TAK1) and mitogen-activated protein kinase kinase kinase kinase 2 (MAP4K2)” (J Med Chem, 2015), this text covers inhibition, residual activity and percent of control for three compounds.

Experiment [1] concerns the target Transient receptor potential cation channel subfamily M member 6 (Homo sapiens) (UniProt Q9BX84). Briefly: Inhibition of TRPM6 (unknown origin) at 1 uM by Ambit Kinomescan binding assay relative to control.
Experiment [2] addresses Ephrin type-B receptor 3 (Homo sapiens) (UniProt P54753). In words: Inhibition of EPHB3 (unknown origin) at 1 uM by Ambit Kinomescan binding assay relative to control; values are per cent of control.
The target in experiment [3] is Epidermal growth factor receptor (Homo sapiens) (UniProt P00533). Briefly: Inhibition of EGFR (unknown origin) at 1 uM by Ambit Kinomescan binding assay relative to control.
Experiment [4] addresses Cyclin-dependent kinase 11B (Homo sapiens) (UniProt P21127). Briefly: Inhibition of CDK11 (unknown origin) at 1 uM by Ambit Kinomescan binding assay relative to control.
Experiment [5] has as its target Cyclin-dependent kinase 4 (Homo sapiens) (UniProt P11802). Briefly: Inhibition of CDK4 Lys2 labeling site in human A-375 cells at 0.05 uM by KiNativ Profiling analysis relative to control. The format is cell-based.
For experiment [6], the target named is T1, Mitogen-activated protein kinase kinase kinase 2 (Homo sapiens) (UniProt Q9Y2U5).
T1 sequence (whole entry): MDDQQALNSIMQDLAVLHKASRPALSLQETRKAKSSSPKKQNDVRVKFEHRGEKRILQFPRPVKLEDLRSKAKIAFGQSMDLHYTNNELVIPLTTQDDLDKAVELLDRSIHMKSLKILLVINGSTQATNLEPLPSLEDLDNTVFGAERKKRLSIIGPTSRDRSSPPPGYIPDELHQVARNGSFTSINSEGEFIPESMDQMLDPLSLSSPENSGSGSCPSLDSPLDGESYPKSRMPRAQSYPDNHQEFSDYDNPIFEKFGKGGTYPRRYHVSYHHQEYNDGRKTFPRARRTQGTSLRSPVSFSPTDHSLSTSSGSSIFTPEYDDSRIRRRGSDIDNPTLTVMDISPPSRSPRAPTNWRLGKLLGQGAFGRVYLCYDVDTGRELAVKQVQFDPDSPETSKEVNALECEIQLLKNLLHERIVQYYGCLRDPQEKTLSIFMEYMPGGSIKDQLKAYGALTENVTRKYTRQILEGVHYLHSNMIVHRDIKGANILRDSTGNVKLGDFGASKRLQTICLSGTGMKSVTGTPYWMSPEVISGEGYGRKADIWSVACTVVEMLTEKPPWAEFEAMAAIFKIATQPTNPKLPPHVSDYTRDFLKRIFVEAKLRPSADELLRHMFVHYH
Briefly: Inhibition of MAP3K2 Lys1 labeling site harbouring ELAVKQVQFDPDSPETSKEVNALECEIQLLK in human A-375 cells at 0.5 uM by KiNativ Profiling analysis relative to control. In kind it is cell-based.

Experiment [7] addresses Calcium/calmodulin-dependent protein kinase type II subunit gamma (Homo sapiens) (UniProt Q13555). In words: Inhibition of CaMK2g K1 labeling site in human Huh-7 cells at 10 uM by KiNativ Profiling analysis relative to control. In kind it is cell-based.
The target in experiment [8] is Serine/threonine-protein kinase N1 (Homo sapiens) (UniProt Q16512). In words: Inhibition of PKN1 (unknown origin) at 10 uM by Ambit Kinomescan binding assay.
For experiment [9], the target named is Membrane-associated tyrosine- and threonine-specific cdc2-inhibitory kinase (Homo sapiens) (UniProt Q99640). In words: Inhibition of PKMYT1 (unknown origin) at 10 uM by Ambit Kinomescan binding assay.
In experiment [10] the target is Hepatocyte growth factor receptor (Homo sapiens) (UniProt P08581). Briefly: Inhibition of MET ACT labeling site in human Huh-7 cells at 10 uM by KiNativ Profiling analysis relative to control. In kind it is cell-based.
For experiment [11], the target named is Serine/threonine-protein kinase 26 (Homo sapiens) (UniProt Q9P289). In words: Inhibition of MST4 Lys1 labeling site in human A-375 cells at 0.05 uM by KiNativ Profiling analysis relative to control. The format is cell-based.
For experiment [12], the target named is Non-receptor tyrosine-protein kinase TYK2 (Homo sapiens) (UniProt P29597). In words: Inhibition of TYK2 domain2 ACT labeling site in human A-375 cells at 0.5 uM by KiNativ Profiling analysis relative to control. The format is cell-based.
Experiment [13] concerns the target Death-associated protein kinase 3 (Homo sapiens) (UniProt O43293). In words: Inhibition of DAPK3 (unknown origin) at 10 uM by Ambit Kinomescan binding assay.
Experiment [14] deals with Serine/threonine-protein kinase Nek4 (Homo sapiens) (UniProt P51957). In words: Inhibition of NEK4 Lys2 labeling site in human A-375 cells at 0.05 uM by KiNativ Profiling analysis relative to control. The format is cell-based.
In experiment [15] the target is T2, Mitogen-activated protein kinase 12 (Homo sapiens) (UniProt P53778).
T2 sequence (whole entry): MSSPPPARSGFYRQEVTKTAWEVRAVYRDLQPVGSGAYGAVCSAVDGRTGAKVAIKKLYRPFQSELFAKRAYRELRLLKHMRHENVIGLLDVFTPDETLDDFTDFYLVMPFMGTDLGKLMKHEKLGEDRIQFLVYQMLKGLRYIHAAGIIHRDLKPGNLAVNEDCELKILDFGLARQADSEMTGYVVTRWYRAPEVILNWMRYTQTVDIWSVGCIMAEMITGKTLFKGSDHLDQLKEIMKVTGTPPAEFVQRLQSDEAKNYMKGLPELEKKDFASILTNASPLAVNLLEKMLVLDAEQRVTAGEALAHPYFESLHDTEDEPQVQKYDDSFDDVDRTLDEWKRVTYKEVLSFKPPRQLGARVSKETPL
In words: Inhibition of p38gamma (unknown origin) at 10 uM by Ambit Kinomescan binding assay relative to control; values are per cent of control.

Experiment [16] concerns the target Tyrosine-protein kinase ABL1 (Homo sapiens, UniProt P00519). Briefly: Inhibition of ABL Lys1 labeling site in human A-375 cells at 0.5 uM by KiNativ Profiling analysis relative to control. The format is cell-based.
For experiment [17], the target named is Tyrosine-protein kinase ITK/TSK (Homo sapiens) (UniProt Q08881). In words: Inhibition of ITK (unknown origin) at 10 uM by Ambit Kinomescan binding assay.
Experiment [18] addresses ALK tyrosine kinase receptor (Homo sapiens) (UniProt Q9UM73). Briefly: Inhibition of ALK (unknown origin) at 10 uM by Ambit Kinomescan binding assay relative to control; values are per cent of control.
Experiment [19] deals with Tyrosine-protein kinase ABL (Homo sapiens) (UniProt P00519+P42684). Briefly: Inhibition of ABL1/2 ACT labeling site in human Huh-7 cells at 10 uM by KiNativ Profiling analysis relative to control. The format is cell-based.
The target in experiment [20] is STE20-like serine/threonine-protein kinase (Homo sapiens) (UniProt Q9H2G2). Briefly: Inhibition of SLK Lys1 labeling site in human Huh-7 cell lysate at 1 uM by KiNativ Profiling analysis relative to control. In kind it is subcellular.
For experiment [21], the target named is Ribosomal protein S6 kinase alpha-4 (Homo sapiens) (UniProt O75676). Briefly: Inhibition of MSK2 domain1 ATP Loop labeling site in human Huh-7 cells at 1 uM by KiNativ Profiling analysis relative to control. In kind it is cell-based.
Experiment [22] in a line: Inhibition of p70S6K Lys2 labeling site in human Huh-7 cells at 1 uM by KiNativ Profiling analysis relative to control. Conditions: condition cancer.

Calls of active or inactive are those of the source. The rule behind the calls is not given here.

Chain of Transient receptor potential cation channel subfamily M member 6 (Homo sapiens) (Q9BX84 whole entry): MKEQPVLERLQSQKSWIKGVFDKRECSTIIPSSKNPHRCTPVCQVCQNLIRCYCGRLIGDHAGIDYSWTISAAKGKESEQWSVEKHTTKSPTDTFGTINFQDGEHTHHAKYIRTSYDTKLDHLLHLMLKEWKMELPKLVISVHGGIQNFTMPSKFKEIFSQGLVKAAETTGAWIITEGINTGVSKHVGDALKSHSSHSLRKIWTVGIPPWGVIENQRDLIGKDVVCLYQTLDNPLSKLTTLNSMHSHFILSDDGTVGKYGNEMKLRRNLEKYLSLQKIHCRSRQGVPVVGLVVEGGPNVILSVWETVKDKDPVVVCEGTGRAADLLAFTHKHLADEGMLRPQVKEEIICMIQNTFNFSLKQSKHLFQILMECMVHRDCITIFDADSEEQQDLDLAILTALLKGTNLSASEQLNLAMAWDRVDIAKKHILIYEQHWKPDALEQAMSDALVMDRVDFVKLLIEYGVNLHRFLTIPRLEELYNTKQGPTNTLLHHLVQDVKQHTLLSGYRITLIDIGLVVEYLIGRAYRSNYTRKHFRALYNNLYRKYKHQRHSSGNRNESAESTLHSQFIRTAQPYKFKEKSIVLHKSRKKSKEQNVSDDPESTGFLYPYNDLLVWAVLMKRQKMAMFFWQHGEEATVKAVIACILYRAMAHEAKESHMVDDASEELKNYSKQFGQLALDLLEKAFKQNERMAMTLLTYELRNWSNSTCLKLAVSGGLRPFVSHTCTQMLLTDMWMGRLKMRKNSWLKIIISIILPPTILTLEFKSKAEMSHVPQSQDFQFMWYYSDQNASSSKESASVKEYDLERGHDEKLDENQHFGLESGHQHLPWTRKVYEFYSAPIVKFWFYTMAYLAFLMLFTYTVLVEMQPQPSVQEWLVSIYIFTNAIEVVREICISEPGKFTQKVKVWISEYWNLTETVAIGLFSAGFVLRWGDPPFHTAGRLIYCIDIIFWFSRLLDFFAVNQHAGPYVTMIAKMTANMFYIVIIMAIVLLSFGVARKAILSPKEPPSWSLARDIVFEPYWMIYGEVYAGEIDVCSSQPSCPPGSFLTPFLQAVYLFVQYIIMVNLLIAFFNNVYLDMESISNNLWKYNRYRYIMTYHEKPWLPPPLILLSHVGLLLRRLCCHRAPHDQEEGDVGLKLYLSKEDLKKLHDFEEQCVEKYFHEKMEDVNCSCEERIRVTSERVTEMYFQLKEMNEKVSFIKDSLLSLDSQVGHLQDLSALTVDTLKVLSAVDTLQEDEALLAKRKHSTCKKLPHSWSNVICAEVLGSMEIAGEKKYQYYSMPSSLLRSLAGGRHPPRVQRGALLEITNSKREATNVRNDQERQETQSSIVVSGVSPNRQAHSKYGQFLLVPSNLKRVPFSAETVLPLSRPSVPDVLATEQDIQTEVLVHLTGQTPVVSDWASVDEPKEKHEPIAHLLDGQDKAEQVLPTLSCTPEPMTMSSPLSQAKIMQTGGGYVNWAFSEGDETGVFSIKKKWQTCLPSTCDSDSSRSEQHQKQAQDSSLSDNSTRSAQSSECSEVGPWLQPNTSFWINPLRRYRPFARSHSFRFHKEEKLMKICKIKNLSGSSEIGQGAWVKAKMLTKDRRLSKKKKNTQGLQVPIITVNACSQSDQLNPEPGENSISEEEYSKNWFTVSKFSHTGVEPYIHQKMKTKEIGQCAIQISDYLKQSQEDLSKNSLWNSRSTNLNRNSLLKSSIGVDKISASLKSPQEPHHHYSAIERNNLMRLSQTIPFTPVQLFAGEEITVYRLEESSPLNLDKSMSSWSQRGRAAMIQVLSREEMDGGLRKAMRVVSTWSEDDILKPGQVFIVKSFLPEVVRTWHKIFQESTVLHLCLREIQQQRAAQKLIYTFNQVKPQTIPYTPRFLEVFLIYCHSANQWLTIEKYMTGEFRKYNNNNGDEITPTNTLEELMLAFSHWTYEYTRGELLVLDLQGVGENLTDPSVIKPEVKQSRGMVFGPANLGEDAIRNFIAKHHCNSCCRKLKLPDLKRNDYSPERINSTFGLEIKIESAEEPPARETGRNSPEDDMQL
Chain of Cyclin-dependent kinase 4 (Homo sapiens) (P11802 whole entry): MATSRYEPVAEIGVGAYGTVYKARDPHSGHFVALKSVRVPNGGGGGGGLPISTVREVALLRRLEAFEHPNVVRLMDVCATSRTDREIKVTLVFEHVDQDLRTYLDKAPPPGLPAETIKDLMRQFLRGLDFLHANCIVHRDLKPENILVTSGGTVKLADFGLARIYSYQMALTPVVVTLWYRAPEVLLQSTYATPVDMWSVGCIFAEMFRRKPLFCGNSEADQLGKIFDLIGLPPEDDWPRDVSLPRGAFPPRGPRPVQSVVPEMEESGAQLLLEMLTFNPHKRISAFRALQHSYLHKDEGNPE
Chain of Calcium/calmodulin-dependent protein kinase type II subunit gamma (Homo sapiens) (Q13555 whole entry): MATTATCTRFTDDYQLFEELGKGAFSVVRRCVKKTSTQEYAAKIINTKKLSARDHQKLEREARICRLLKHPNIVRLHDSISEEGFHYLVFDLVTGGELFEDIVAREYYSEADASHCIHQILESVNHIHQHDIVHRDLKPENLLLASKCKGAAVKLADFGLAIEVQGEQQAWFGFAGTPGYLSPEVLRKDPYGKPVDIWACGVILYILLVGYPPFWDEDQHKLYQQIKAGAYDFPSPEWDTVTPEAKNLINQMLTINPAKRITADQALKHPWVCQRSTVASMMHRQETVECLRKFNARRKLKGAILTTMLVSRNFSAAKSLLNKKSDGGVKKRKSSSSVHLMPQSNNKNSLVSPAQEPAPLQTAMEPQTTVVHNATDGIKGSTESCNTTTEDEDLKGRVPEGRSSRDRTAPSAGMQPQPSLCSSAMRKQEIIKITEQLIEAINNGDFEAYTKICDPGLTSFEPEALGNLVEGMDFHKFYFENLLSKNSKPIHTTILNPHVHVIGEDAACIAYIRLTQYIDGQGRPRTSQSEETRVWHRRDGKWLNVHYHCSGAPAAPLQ
Chain of Ephrin type-B receptor 3 (Homo sapiens) (P54753 whole entry): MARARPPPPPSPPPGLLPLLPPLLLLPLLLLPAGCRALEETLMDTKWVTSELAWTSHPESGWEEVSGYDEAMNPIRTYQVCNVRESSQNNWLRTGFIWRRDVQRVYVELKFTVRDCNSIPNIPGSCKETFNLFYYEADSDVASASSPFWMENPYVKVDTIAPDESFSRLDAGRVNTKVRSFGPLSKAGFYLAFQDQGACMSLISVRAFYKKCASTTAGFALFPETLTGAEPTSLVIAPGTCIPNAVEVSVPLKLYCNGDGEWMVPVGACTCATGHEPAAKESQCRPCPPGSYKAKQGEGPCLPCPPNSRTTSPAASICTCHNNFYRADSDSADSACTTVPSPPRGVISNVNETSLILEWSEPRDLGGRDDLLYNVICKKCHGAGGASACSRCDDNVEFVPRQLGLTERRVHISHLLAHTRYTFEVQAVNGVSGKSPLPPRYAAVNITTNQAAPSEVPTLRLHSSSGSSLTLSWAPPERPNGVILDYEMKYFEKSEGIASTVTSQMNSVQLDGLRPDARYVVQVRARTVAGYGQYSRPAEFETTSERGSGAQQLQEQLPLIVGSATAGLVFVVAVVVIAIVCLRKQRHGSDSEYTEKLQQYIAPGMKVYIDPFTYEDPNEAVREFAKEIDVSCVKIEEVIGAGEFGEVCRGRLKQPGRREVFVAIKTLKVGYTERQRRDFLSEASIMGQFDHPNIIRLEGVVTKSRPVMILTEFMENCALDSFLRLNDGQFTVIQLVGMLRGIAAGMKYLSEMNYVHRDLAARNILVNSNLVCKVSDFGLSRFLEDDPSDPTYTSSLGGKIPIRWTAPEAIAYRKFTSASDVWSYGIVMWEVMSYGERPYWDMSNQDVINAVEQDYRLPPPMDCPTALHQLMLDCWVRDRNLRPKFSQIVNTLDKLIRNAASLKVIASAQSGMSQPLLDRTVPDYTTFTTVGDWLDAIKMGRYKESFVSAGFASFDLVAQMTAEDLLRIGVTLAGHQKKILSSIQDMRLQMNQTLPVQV
Chain of Serine/threonine-protein kinase N1 (Homo sapiens) (Q16512 2-942 limits assumed): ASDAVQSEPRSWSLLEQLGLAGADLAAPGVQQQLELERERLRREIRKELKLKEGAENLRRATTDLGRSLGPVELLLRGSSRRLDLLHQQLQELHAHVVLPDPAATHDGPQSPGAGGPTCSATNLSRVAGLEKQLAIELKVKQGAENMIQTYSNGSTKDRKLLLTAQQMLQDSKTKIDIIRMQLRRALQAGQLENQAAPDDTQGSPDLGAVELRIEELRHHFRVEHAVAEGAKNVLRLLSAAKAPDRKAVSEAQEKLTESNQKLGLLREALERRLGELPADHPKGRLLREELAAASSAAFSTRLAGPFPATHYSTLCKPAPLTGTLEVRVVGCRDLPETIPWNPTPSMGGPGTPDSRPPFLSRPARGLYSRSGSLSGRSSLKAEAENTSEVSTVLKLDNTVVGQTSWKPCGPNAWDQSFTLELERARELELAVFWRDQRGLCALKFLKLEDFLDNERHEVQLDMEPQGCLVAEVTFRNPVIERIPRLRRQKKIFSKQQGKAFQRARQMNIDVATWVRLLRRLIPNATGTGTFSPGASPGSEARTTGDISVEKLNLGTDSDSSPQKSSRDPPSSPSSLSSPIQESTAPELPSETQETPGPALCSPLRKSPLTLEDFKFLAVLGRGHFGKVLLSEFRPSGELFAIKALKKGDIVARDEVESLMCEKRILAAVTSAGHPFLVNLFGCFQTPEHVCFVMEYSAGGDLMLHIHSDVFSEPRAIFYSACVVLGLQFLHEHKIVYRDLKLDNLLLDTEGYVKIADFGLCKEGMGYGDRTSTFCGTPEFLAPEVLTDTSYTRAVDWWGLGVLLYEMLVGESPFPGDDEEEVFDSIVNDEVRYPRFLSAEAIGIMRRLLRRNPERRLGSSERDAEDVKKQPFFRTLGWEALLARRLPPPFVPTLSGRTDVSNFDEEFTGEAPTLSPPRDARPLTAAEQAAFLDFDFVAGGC

Take `CCN1CCN(Cc2ccc(NC(=O)c3ccc(C)c(/C=C/c4cnc5[nH]ccc5c4OC)c3)cc2C(F)(F)F)CC1`: the inhibition (in general, the drop in the measured response relative to a control, in per cent) was 100% in experiment [1], 7.6% in experiment [3], 27% in [4] and -10% in [5]. In addition, the residual activity – broadly, the share of the control activity or signal that is left under treatment – in experiment [2] is 63%.

For `CCN1CCN(Cc2ccc(NC(=O)c3ccc(C)c(Oc4ccnc5[nH]ccc45)c3)cc2C(F)(F)F)CC1`, the inhibition in experiment [6] is 16.9%; in [7] it was 0%; in experiment [10], -8%; in experiment [11], -8.3%; in [12], -3.5%; in experiment [14] it was 15.2%. In addition, the inhibition in [16] is 85.5%; in experiment [19], 98.4%. Moreover, the inhibition result in experiment [8], in [9], in [13] and in [17] was “inactive” in each case. Besides, the percent of control is 0% in experiment [15] and 0.55% in experiment [18].

Regarding `CNc1cc(Oc2cc(C(=O)Nc3cc(N4CCN(C)CC4)cc(C(F)(F)F)c3)ccc2C)ncn1`, the inhibition in experiment [20] is 3.9%; in experiment [21], 11.5%. For the same compound, the inhibition at 1 µM in experiment [22] was -110%.
